# Tests used:
# CXCR-2 = target: T1, CXCR-2 (Homo sapiens, UniProt P25025); details: cited from earlier work
# T1 sequence (P25025 1-360): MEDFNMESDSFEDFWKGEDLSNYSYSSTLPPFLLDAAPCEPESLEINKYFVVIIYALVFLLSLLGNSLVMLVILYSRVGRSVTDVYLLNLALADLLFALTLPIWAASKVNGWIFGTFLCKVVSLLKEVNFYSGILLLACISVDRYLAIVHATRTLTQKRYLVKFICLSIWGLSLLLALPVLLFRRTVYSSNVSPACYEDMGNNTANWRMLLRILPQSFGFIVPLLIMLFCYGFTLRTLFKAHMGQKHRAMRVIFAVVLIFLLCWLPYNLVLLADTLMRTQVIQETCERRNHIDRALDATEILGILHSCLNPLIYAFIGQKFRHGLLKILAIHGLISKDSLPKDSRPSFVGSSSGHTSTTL
# [1] = tested on: rat air pouch model of crystal-induced arthropathy (MSU); experiment: Rat air pouch model, Example 8 (Compound 3 in combination with colchicine); assay type: in vivo
# Description: Sodium hydroxide (40 g, Fisher Scientific) was dissolved in de-ionized water (100 mL, dH2O) to provide a 10N solution. Uric acid (16 g, Sigma) was added to de-ionized water (3400 mL) containing sodium hydroxide solution (11.8 mL, 10N) and heated to 60° C. with constant stirring. […] The resulting clear solution was cooled to 4-8° C., resulting in the formation of crystals, which were isolated by filtration, washed three times with de-ionized wa[…]) and dried at 37° C. The dried mono sodium urate crystals were sifted into an air-tight container for storage. […] Methylcellulose (0.4 g, Sigma) was dissolved in de-ionized water (100 mL) to provide a 0.4% solution used as vehicle. […] Test compounds were suspended in vehicle to provide the desired concentrations, and diluted accordingly. […] Male Sprague-Dawley rats (Charles River Laboratories, 160-180 g) were received, individually examined and housed in cages of five rats each. The animals were in apparent good health with no clinical signs of disease or distress. The rats were placed in quarantine with daily inspections, ear notched for identification purposes and shaved at the nape of the neck. The rats were anesthetized (isoflurane), and the nape of the neck was cleansed with 70% isopropanol (Butler Animal Health Supply) followed by povidone-iodine solution (Ricca Chemical Co.). Sterile air (30 mL, 0.2 μm, Millipore) was injected subcutaneously using a 23 G×11⁄2 inch needle fixed to a 30 mL syringe. The rats were returned to routine housing with no adverse reactions observed. The rats were anesthetized (isoflurane), and the nape of the neck was cleansed with 70% isopropanol (Butler Animal Health Supply) followed by povidone-iodine solution (Ricca Chemical Co.). Sterile air (15 mL, 0.11 μm, Millipore) was injected subcutaneously using a 23 G×11⁄2 inch needle fixed to a 20 mL syringe. The rats were returned to routine housing with no adverse reactions observed. The rats were weighed and sorted into treatment groups based on average body weight. As appropriate, the rats were dosed orally with test compound or vehicle (saline alone). […] Thirty minutes after SC injection or two hours after PO dosing, MSU (15 mL) was injected into the air pouch using an 18 G×2 inch needle fitted to a 20 mL syringe. Control group was injected with 15 mL sterile saline (vehicle). The injection sites were closed (collodion, Macron) and the rats returned to their cages with no adverse effects observed. Four hours after MSU/saline injection, the rats were anesthetized and heparinized saline (5 mL, 10 U/mL) was injected into the air pouch. […] An aliquot of the exudate was transferred to green Eppendorf tubes for total white blood cell (WBC) measurement. After allowing the MSU crystals to settle out for ten minutes, an aliquot of the exudate was transferred to heparinized microtainer tubes (Becton Dickinson) for differential white blood cell counts. The remainder of the exudate was centrifuged and an aliquot of the supernatants was dispensed to labeled clear Eppendorf tubes and stored at -80° C. The rats were exsanguinated into pre-chilled serum separator tubes, processed to serum, and 0.5 mL aliquot was stored at -80° C. in labeled Eppendorf tubes. […] [table]
# [2] = 10.0 umol/kg PO + Colchicine 0.3 mpk SC, Group 10
structure (smiles),measurement,setting,value
"CC[C@@H](Nc1c(Nc2cccc(C(=O)N(C)C)c2O)c(=O)c1=O)c1ccc(C)o1 [Compound 2, (R)-2-hydroxy-N,N-dimethyl-3-((2-((1-(5-methylfuran-2-yl)propyl)amino)-3,4-dioxocyclobut-1-en-1-yl)amino)benzamide]",inhibit CXCR-2,CXCR-2,shown to inhibit CXCR-2
"C[C@@H](Oc1cc(NS(=O)(=O)N2CCC2)nc(SCc2cccc(F)c2F)n1)[C@@H](O)CO [Compound 3, N-(2-((2,3-difluorobenzyl)thio)-6-(((2R,3S)-3,4-dihydroxybutan-2-yl)oxy)pyrimidin-4-yl)azetidine-1-sulfonamide]",inhibit CXCR-2,CXCR-2,shown to inhibit CXCR-2
same,Avg Exudate Vol,[1]; [2],9.46 mL
same,Avg Total WBC,[1]; [2],69.1 ×10^6
same,Neutrophils,[1]; [2],53.1 ×10^6
same,Avg Exudate Vol,"[1]; 10.0 umol/kg PO, Group 6",10.93 mL
same,Avg Total WBC,"[1]; 10.0 umol/kg PO, Group 6",118 ×10^6
same,Neutrophils,"[1]; 10.0 umol/kg PO, Group 6",83.3 ×10^6
same,Avg Exudate Vol,"[1]; 30.0 umol/kg PO, Group 7",8.42 mL
same,Avg Total WBC,"[1]; 30.0 umol/kg PO, Group 7",70.5 ×10^6
same,Neutrophils,"[1]; 30.0 umol/kg PO, Group 7",40.3 ×10^6
same,Avg Exudate Vol,"[1]; 100 umol/kg PO, Group 8",6.56 mL
same,Avg Total WBC,"[1]; 100 umol/kg PO, Group 8",56.1 ×10^6
same,Neutrophils,"[1]; 100 umol/kg PO, Group 8",25.2 ×10^6
same,Avg Exudate Vol,"[1]; 300 umol/kg PO, Group 9",5.7 mL
same,Avg Total WBC,"[1]; 300 umol/kg PO, Group 9",24.7 ×10^6
same,Neutrophils,"[1]; 300 umol/kg PO, Group 9",5.3 ×10^6
"CC1CN(S(=O)(=O)Nc2cc(O[C@H](C)[C@@H](O)CO)nc(SCc3ccc(F)cc3)n2)C1 [Compound 4, N-(6-(((2R,3S)-3,4-dihydroxybutan-2-yl)oxy)-2-((4-fluorobenzyl)thio)pyrimidin-4-yl)-3-methylazetidine-1-sulfonamide]",inhibit CXCR-2,CXCR-2,shown to inhibit CXCR-2
"COc1cc2c(c(OC)c1OC)-c1ccc(OC)c(=O)cc1[C@@H](NC(C)=O)CC2 [Colchicine, COLCHICINE, reference compound]",Avg Exudate Vol,"[1]; 0.3 mpk SC, Group 3",11.88 mL
same,Avg Total WBC,"[1]; 0.3 mpk SC, Group 3",170 ×10^6
same,Neutrophils,"[1]; 0.3 mpk SC, Group 3",121.8 ×10^6
same,Avg Exudate Vol,"[1]; 0.5 mpk SC, Group 4",7.62 mL
same,Avg Total WBC,"[1]; 0.5 mpk SC, Group 4",96.3 ×10^6
same,Neutrophils,"[1]; 0.5 mpk SC, Group 4",64.6 ×10^6
same,Avg Exudate Vol,"[1]; 1.0 mpk SC, Group 5",6.8 mL
same,Avg Total WBC,"[1]; 1.0 mpk SC, Group 5",41.5 ×10^6
same,Neutrophils,"[1]; 1.0 mpk SC, Group 5",7.6 ×10^6

# Source: patent US10772886B2, “CXCR-2 inhibitors for treating crystal arthropathy disorders” (ARDEA BIOSCIENCES, INC., priority 2016, dated 2020)
